Test results taken from patent US10441681B2, “Materials and methods for nerve grafting” (University of Florida Research Foundation, Inc., priority 2001, dated 2019).

Legend:
[1] = test system: rat sciatic nerve; assay: Human-to-rat acellular nerve xenograft model (GAP-43 axonal profiles); type: in vivo; settings: 8-day acellular human nerve grafts in rat, 2 host rats
Description: In the following experiments, the hypothesis that chondroitinase treatment improves nerve regeneration through acellular human nerve grafts in a rat xenograft model was tested. Subunits (individual fascicles) taken from human nerves were treated en bloc with vehicle or chondroitinase ABC. Ten-mm interpositional nerve grafts were joined to the rat host sciatic nerve by epineurial neurorrhaphy reinforced with fibrin glue. Each of 2 host rats received bilateral grafts, one vehicle-treated and one chondroitinase-treated graft. Regeneration was initially examined after 8 days. Axonal growth was assessed at specified spatial intervals within the graft by scoring GAP-43-immunopositive profiles in transverse sections.

[2] = test system: CSPG; assay: CSPG neoepitope immunostaining of human nerve segments treated with chondroitinase
Description: Axonal regeneration was assessed by GAP-43 immunofluorescence and digital image analysis. Tissue sections mounted on slides were washed with PBS and then treated with 0.5% Triton X-100 in PBS for 10 min. The sections were treated with blocking buffer (10% serum in PBS+0.1% Triton X-100) and then incubated overnight at 4° C. with primary antibodies (diluted in blocking buffer). Bound antibodies were labeled with swine anti-rabbit immunoglobulins (DAKO CORPORATION, Carpinteria, Calif.) or goat anti-mouse immunoglobulins (Sigma) FITC-conjugated secondary antibodies for 1 h at room temperature in darkness. The anti-mouse secondary antibody was preadsorbed with rat serum prior to use. The sections were washed, postfixed with 4% paraformaldehyde in PBS, rinsed, and coverslipped in fluorescent mounting media. Affinity-purified rabbit anti-GAP-43 peptide antibody was produced using known methods (Ferguson T A et al. [2000] Mol Cell Neurosci, 16:157-167) and was used at 2 μg/ml. Polyclonal antibody 1918 (CHEMICON INTERNATIONAL, Temecula, Calif.) (1:1000) binds only to the unsaturated disaccharide unit that remains attached to the linkage region of CSPG core protein exposed by digestion with chondroitinase ABC (Bertolotto A et al. [1986] J Neurol Sci 73:233-244). Polyclonal anti-EHS laminin antibody (Sigma) (1:1000) was used to label basal laminae. […]

[3] = test system: CSPG; assay: CSPG-neoepitope immunolabeling of injured sciatic nerve after in vivo chondroitinase injection; set-up: species or system rat; settings: single injection 1 U in 2 μl, 2 mm distal to injury; 4 days (transection) or 2 days (crush)
Description: All surgical procedures were performed according to Institutional Animal Care and Use Committee (IACUC) approved protocols. Young adult SPRAGUE DAWLEY rats (HARLAN Indianapolis, Ind.) were deeply anesthetized with xylazine (15 mg/kg, i.m.) followed by ketamine-HCl (110 mg/kg, i.p.). Six animals received bilateral nerve crush injuries. Sciatic nerves were exposed and then crushed with firm pressure for thirty seconds with a DUMONT #5 forceps at a site 4 mm distal to the tendon of the internal obdurator. The crush site was marked with an epineurial suture. In a separate set of experiments, eight rats received bilateral sciatic nerve transection injuries using serrated scissors. The proximal and distal stumps were […] by epineurial neurorrhaphy using 9-0 ETHILON sutures. Fibrin glue (fibrinogen and thrombin) was then applied to stabilize the union. In both injury models, the right sciatic nerves were injected 2-mm distal to the injury with chondroitinase ABC (1 U in 2 μl) (high-purity, protease-free; SIGMA CHEMICAL CO., St. Louis, Miss.). Left sciatic nerves (with the same injury as the right side) were injected with vehicle alone (0.1% bovine serum albumin in PBS). Muscle incisions were sutured and the skin closed with metal clips. […]
Axonal regeneration was assessed by GAP-43 immunofluorescence and digital image analysis. […]

## chondroitinase ABC
[1]
  average number of axons (GAP-43-immunopositive profiles) entering grafts vs control grafts: more than three-fold greater
[2]
  CSPG side chain degradation (neoepitope labeling): effectively degraded
[3]
  CSPG degradation in extracellular matrix around the injection site: substantially, if not completely, degraded CSPG
